US4698352A, “4-oxo-1,4-dihydronicotinic acid derivatives, salts thereof, and antibacterial agents containing the same” (Toyama Chemical Co., Ltd., priority 1982, dated 1987)
≈ marks a conversion by molar mass, not a printed value. Where two headings read alike, the source gives them in different places.

How the values were obtained:
Test in all cases: Antibacterial activity (MIC), agar dilution
Type in all cases: cell-based
Aci. antitratus A-6 = conditions: 20 h, Aci. antitratus A-6; 10^6 cells per ml; 37° C., 20 hours; read-out: MIC
Excerpt: (§1) The amount of bacteria inoculated was 10^4 cells per plate (10^6 cells per ml).

E. coli NIHJ JC-2 = conditions: Escherichia coli, NIHJJC2, 20 h
Excerpt: as §1

E. coli TK-111 = conditions: Escherichia coli, TK111, 20 h, E. coli TK-111; 10^6 cells per ml; 37° C., 20 hours; read-out: MIC
Excerpt: as §1

Ent. cloacae IID977 = conditions: Enterobacter cloacae, IID977, 20 h
Excerpt: as §1

Kl. pneumoniae Y-41 = conditions: Klebsiella pneumoniae, Y41, 10^6 cells per ml, 37° C., 20 hours, read-out: MIC
Excerpt: as §1

Kl. pneumoniae Y-50 = conditions: Klebsiella pneumoniae, Y50, 20 h, 10^6 cells per ml, 37° C., read-out: MIC
Excerpt: as §1

Pro. mirabilis T-111 = conditions: Proteus mirabilis, 37° C.
Excerpt: as §1

Pro. morganii T-216 = conditions: Morganella morganii, 37° C.
Excerpt: as §1

Pro. vulgaris GN3027 = conditions: Proteus vulgaris, GN3027, 20 h, Pro. vulgaris GN3027; 10^6 cells per ml; 37° C., 20 hours; read-out: MIC
Excerpt: as §1

Ps. aeruginosa IFO3445 = conditions: Pseudomonas aeruginosa; Ps. aeruginosa IFO3445; 10^6 cells per ml; 37° C., 20 hours; read-out: MIC
Excerpt: as §1

Ps. aeruginosa S-68 = conditions: Pseudomonas aeruginosa
Excerpt: as §1

St. aureus FDA209P = conditions: Staphylococcus aureus, FDA209P, 20 h
Excerpt: as §1

E. coli TK-3* = conditions: Escherichia coli, 20 h
Excerpt: as §1
(§2) * Penicillinase-producing bacteria

Kl. pneumoniae Y-4* = conditions: Klebsiella pneumoniae, 20 h, Kl. pneumoniae Y-4, penicillinase-producing; 10^6 cells per ml; read-out: MIC
Excerpt: as §1, §2

Ps. aeruginosa GN3379* = conditions: Pseudomonas aeruginosa, 20 h; Ps. aeruginosa GN3379, penicillinase-producing; 10^6 cells per ml; read-out: MIC
Excerpt: as §1, §2

St. aureus F-137* = conditions: Staphylococcus aureus, 20 h, St. aureus F-137, penicillinase-producing; 10^6 cells per ml; read-out: MIC
Excerpt: as §1, §2

E. coli GN5482** = conditions: Escherichia coli
Excerpt: as §1
(§3) ** Cephalospolinase-producing bacteria

Pro. vulgaris GN76** = conditions: Proteus vulgaris
Excerpt: as §1, §3

Ps. aeruginosa GN918** = conditions: Pseudomonas aeruginosa, Ps. aeruginosa GN918, cephalospolinase-producing, 10^6 cells per ml
Excerpt: as §1, §3

[1] = E. coli NIHJ JC-2, 10^6 cells per ml, 37° C., 20 hours, read-out: MIC
[2] = Ent. cloacae IID977, 10^6 cells per ml, 37° C., 20 hours, read-out: MIC
[3] = T111, 10^6 cells per ml, 20 hours, read-out: MIC
[4] = T216, 10^6 cells per ml, 20 hours, read-out: MIC
[5] = S68, Ps. aeruginosa S-68, 10^6 cells per ml, 37° C., 20 hours, read-out: MIC
[6] = St. aureus FDA209P, 10^6 cells per ml, 37° C., 20 hours, read-out: MIC
[7] = E. coli TK-3, penicillinase-producing, 10^6 cells per ml, read-out: MIC
[8] = 20 h, E. coli GN5482, cephalospolinase-producing, 10^6 cells per ml, read-out: MIC
[9] = 20 h, Pro. vulgaris GN76, cephalospolinase-producing, 10^6 cells per ml, read-out: MIC

Row | SMILES | MIC (Aci. antitratus A-6) [µg/mL] | MIC (E. coli NIHJ JC-2; [1]) [µg/mL] | MIC (E. coli TK-111) [µg/mL] | MIC (Ent. cloacae IID977; [2]) [µg/mL] | MIC (Kl. pneumoniae Y-41) [µg/mL] | MIC (Kl. pneumoniae Y-50) [µg/mL] | MIC (Pro. mirabilis T-111; [3]) [µg/mL] | MIC (Pro. morganii T-216; [4]) [µg/mL] | MIC (Pro. vulgaris GN3027) [µg/mL] | MIC (Ps. aeruginosa IFO3445) [µg/mL] | MIC (Ps. aeruginosa S-68; [5]) [µg/mL] | MIC (St. aureus FDA209P; [6]) [µg/mL] | MIC (E. coli TK-3*; [7]) [µg/mL] | MIC (Kl. pneumoniae Y-4*) [µg/mL] | MIC (Ps. aeruginosa GN3379*) [µg/mL] | MIC (St. aureus F-137*) [µg/mL] | MIC (E. coli GN5482**; [8]) [µg/mL] | MIC (Pro. vulgaris GN76**; [9]) [µg/mL] | MIC (Ps. aeruginosa GN918**; 20 h, read-out: MIC) [µg/mL] | MIC (Pro. morganii T-216; T216, 20 h, 10^6 cells per ml) [µg/mL] | also measured
1 | O=C(O)c1cn(-c2ccc(O)cc2)c(-c2ccc(-n3cccn3)cc2)cc1=O | 0.78 (≈ 2.09 µM) | 0.1 (≈ 0.268 µM) | ≤ 0.05 | 0.2 (≈ 0.536 µM) | 0.78 (≈ 2.09 µM) | 0.2 (≈ 0.536 µM) | 3.13 (≈ 8.38 µM) | 1.56 (≈ 4.18 µM) | 0.39 (≈ 1.04 µM) | 6.25 (≈ 16.7 µM) | 6.25 (≈ 16.7 µM) | 0.39 (≈ 1.04 µM) | 0.2 (≈ 0.536 µM) | 0.78 (≈ 2.09 µM) | 6.25 (≈ 16.7 µM) | 0.39 (≈ 1.04 µM) | ≤ 0.05 | 1.56 (≈ 4.18 µM) | 3.13 (≈ 8.38 µM) |  | 
2 | Cc1nc(-c2ccc(-c3cc(=O)c(C(=O)O)cn3-c3ccc(O)cc3C)cc2)cs1 | ≤ 0.05 | 0.1 (≈ 0.239 µM) | ≤ 0.05 | 0.39 (≈ 0.932 µM) | 1.56 (≈ 3.73 µM) | 0.2 (≈ 0.478 µM) | 0.78 (≈ 1.86 µM) |  | 0.39 (≈ 0.932 µM) | 3.13 (≈ 7.48 µM) | 3.13 (≈ 7.48 µM) | ≤ 0.05 | 0.39 (≈ 0.932 µM) | 1.56 (≈ 3.73 µM) | 6.25 (≈ 14.9 µM) | ≤ 0.05 | ≤ 0.05 | 0.39 (≈ 0.932 µM) | 0.39 (≈ 0.932 µM) | 1.56 (≈ 3.73 µM) | 
3 | Cc1nc(-c2ccc(-c3cc(=O)c(C(=O)O)cn3-c3ccc(F)cc3)cc2)co1 | 0.2 (≈ 0.512 µM) | 0.78 (≈ 2 µM) | 0.39 (≈ 0.999 µM) | 3.13 (≈ 8.02 µM) | 6.25 (≈ 16 µM) | 1.56 (≈ 4 µM) |  |  | 0.39 (≈ 0.999 µM) | 25 (≈ 64 µM) |  | 0.39 (≈ 0.999 µM) | 3.13 (≈ 8.02 µM) | 12.5 (≈ 32 µM) | 25 (≈ 64 µM) | 0.39 (≈ 0.999 µM) | 0.2 (≈ 0.512 µM) | 3.13 (≈ 8.02 µM) | 3.13 (≈ 8.02 µM) | 6.25 (≈ 16 µM) | MIC (Pro. mirabilis T-111; T111, 20 h, 10^6 cells per ml): 6.25 µg/mL (≈ 16 µM); MIC (Ps. aeruginosa S-68; S68, 20 h): 12.5 µg/mL (≈ 32 µM)
4 | CN1CCCc2cc(-c3cc(=O)c(C(=O)O)cn3-c3ccc(O)cc3)ccc21 | 0.39 (≈ 1.04 µM) | 0.39 (≈ 1.04 µM) | 0.2 (≈ 0.531 µM) |  | 3.13 (≈ 8.32 µM) | 1.56 (≈ 4.14 µM) |  |  | 0.78 (≈ 2.07 µM) | 12.5 (≈ 33.2 µM) |  | 0.39 (≈ 1.04 µM) |  | 6.25 (≈ 16.6 µM) | 12.5 (≈ 33.2 µM) | 0.2 (≈ 0.531 µM) | ≤ 0.05 |  |  | 3.13 (≈ 8.32 µM) | MIC (Ent. cloacae IID977): 1.56 µg/mL (≈ 4.14 µM); MIC (Pro. mirabilis T-111; T111, 20 h, 10^6 cells per ml): 3.13 µg/mL (≈ 8.32 µM); MIC (Ps. aeruginosa S-68; S68, 20 h): 6.25 µg/mL (≈ 16.6 µM); MIC (E. coli TK-3*): 1.56 µg/mL (≈ 4.14 µM); MIC (Pro. vulgaris GN76**; GN76, 20 h): 1.56 µg/mL (≈ 4.14 µM); MIC (Ps. aeruginosa GN918**; GN918, 20 h): 3.13 µg/mL (≈ 8.32 µM)
5 | CN1CCc2cc(-c3cc(=O)c(C(=O)O)cn3-c3ccc(O)cc3)ccc21 | 0.39 (≈ 1.08 µM) | 0.2 (≈ 0.552 µM) | ≤ 0.05 | 0.78 (≈ 2.15 µM) | 1.56 (≈ 4.3 µM) | 0.39 (≈ 1.08 µM) | 3.13 (≈ 8.64 µM) | 0.78 (≈ 2.15 µM) | 0.2 (≈ 0.552 µM) | 12.5 (≈ 34.5 µM) | 6.25 (≈ 17.2 µM) | 0.2 (≈ 0.552 µM) | 0.39 (≈ 1.08 µM) | 1.56 (≈ 4.3 µM) | 6.25 (≈ 17.2 µM) | 0.1 (≈ 0.276 µM) | ≤ 0.05 | 0.39 (≈ 1.08 µM) |  |  | MIC (Ps. aeruginosa GN918**; GN918, 20 h): 1.56 µg/mL (≈ 4.3 µM)
6 | CC1Cc2cc(-c3cc(=O)c(C(=O)O)cn3-c3ccc(O)cc3)ccc2O1 (stereo not drawn) | 3.13 (≈ 8.61 µM) |  | 0.78 (≈ 2.15 µM) | 3.13 (≈ 8.61 µM) | 6.25 (≈ 17.2 µM) | 1.56 (≈ 4.29 µM) |  | 3.13 (≈ 8.61 µM) | 0.78 (≈ 2.15 µM) | 50 (≈ 138 µM) | 25 (≈ 68.8 µM) |  | 3.13 (≈ 8.61 µM) | 12.5 (≈ 34.4 µM) | 25 (≈ 68.8 µM) | 3.13 (≈ 8.61 µM) |  | 3.13 (≈ 8.61 µM) |  |  | MIC (E. coli NIHJ JC-2): 1.56 µg/mL (≈ 4.29 µM); MIC (Pro. mirabilis T-111; T111, 20 h, 10^6 cells per ml): 12.5 µg/mL (≈ 34.4 µM); MIC (St. aureus FDA209P): 1.56 µg/mL (≈ 4.29 µM); MIC (E. coli GN5482**; GN5482, 20 h): 1.56 µg/mL (≈ 4.29 µM); MIC (Ps. aeruginosa GN918**; GN918, 20 h): 12.5 µg/mL (≈ 34.4 µM)
